Results taken from patent US20150225377A1, “VEGFR3 INHIBITORS” (CANCER THERAPEUTICS CRC PTY LIMITED, priority 2012, published 2015).

Columns and labels:
VEGFR3 = molecular target: T1, VEGFR3 (Homo sapiens, UniProt P35916); assay: VEGFR3 Phospho ELISA assay in HMVEC-dLyAD cells, VEGFC stimulated; assay type: cell-based; conditions: 1 hour compound, 250 ng/mL VEGFC 10 minutes
T1 construct: host or cells: HMVEC-dLyAD
Experimental: Adult human dermal lymphatic microvascular endothelial cells (HMVEC-dLyAD) (Cat#CC-2810, Lonza) were seeded into clear-bottom, TC treated 12 well plates (Cat #665180, Greiner Bio-One) in EGM-2MV (Cat#CC-3202, Lonza) at 180,000 cells/well (volume 1 mL), and the plates incubated at 37° C. and 5% CO2 for 6 hours. The media was replaced with EBM-2 (Cat #CC-3156, Lonza)+0.1% BSA (Cat#A8412, Sigma) and cells incubated for a further period (overnight at 37° C. and 5% CO2).
96 well Maxisorp immuno plates (Cat #439454, Nunc) were coated with 100 μL of Total VEGFR3 capture antibody (Part #841888, Human Total VEGFR3/FLT4 ELISA Kit, Cat #DYC3491, R&D Systems), or Phospho VEGFR3 Capture antibody (Part #841885, Human Phospho VEGFR3/FLT4 ELISA Kit, Cat#DYC2724, R&D Systems). The plates were covered and incubated at room temperature overnight.
The coating antibody was flicked out and the plates washed three times with Wash Buffer (Phosphate buffered saline (137 mM NaCl, […], […], […], pH 7.2-7.4), 0.05% Tween 20). 300 μL of blocking buffer (5% v/v Tween 20, 5% w/v sucrose in PBS) was then added to wells and plate incubated for 2 hours at room temperature. Blocking solution is flicked out and plates washed three times and tapped dry.
Compound dilution series were prepared in EBM-2 (Cat #CC-3156, Lonza)+0.1% BSA (Cat#A8412, Sigma) with constant 0.1% DMSO concentration. 439 μL of sample or vehicle control was added to the cell monolayers. Cells are treated for 1 hour at 37° C. and 5% CO2. 250 ng/mL Recombinant human VEGFC (Cat #2179-VC, R & D Systems) added to wells and plates incubated for an additional 10 minutes at 37° C. and 5% CO2.
The media and compounds were removed and the cell monolayer washed once in Dulbecco's Phosphate Buffered Saline (Cat #21600-044, Invitrogen). 130 μL of Lysis buffer added to wells and cell lysate harvested and transferred to tubes and stored on ice. Complete lysis buffer was prepared by adding 10 μL Protease Inhibitor Cocktail (Cat #P8340, Sigma-Aldrich), 10 μL PMSF (Phenylmethanesulfonyl fluoride, Cat #P7626, Sigma-Aldrich, prepared as 500 mM DMSO stock) per 1 mL of Phosphosafe™ Extraction Reagent (Cat #71296, Merck).
The harvested samples were then diluted 1:2 in IC Diluent #18 (5% Tween 20/PBS) and 100 μL transferred to the Total and Phospho VEGFR3 coated, blocked and washed 96 well plates and incubated for 2 hours at room temperature. The plates were then washed three times in wash buffer as described above and tapped dry.
For detection of Total VEGFR3100 μL of Detection antibody (Total VEGFR3 Detection Antibody Part#841888 in Total VEGFR3 kit) diluted in IC Diluent #1 (1% w/v BSA (Cat #A7906, Sigma-Aldrich)/PBS) was added to wells and the plate incubated for 2 hours at room temperature. The plate was then washed three times in wash buffer and tapped dry. 100 μL of streptavidin-HPR diluted in IC diluent #1 Streptavidin-HRP, Part #890803 in Total VEGFR3 kit) was added to wells and incubated at room temperature for 20 minutes followed by washing as described above 100 μL Substrate solution (3,3′,5,5′-Tetramethylbenzidine (TMB) Liquid Substrate System for ELISA, Cat #T0440, Sigma-Aldrich) was added and the plate incubated for 20 minutes in the dark at room temperature followed by the addition of 50 μL stop solution (2 M H2SO4).
Total VEGFR3 levels were quantified using a Multiskan Ascent plate reader and Ascent software fitted with 450 nm filter.
For detection of Phospho VEGFR3, 100 μL of Detection antibody (Anti-Phospho-Tyrosine-HRP Detection Antibody, Part #841403 in Phospho VEGFR3 kit) was diluted in IC Diluent #1 (1% w/v BSA/PBS), added to the wells and the plate incubated for 2 hours at room temperature. The plate was then washed three times in wash buffer as described above and tapped dry. […]

[1] = molecular target: T2, VEGFR3 cytoplasmic domain (Homo sapiens, UniProt P35916); assay: VEGFR3 biochemical assay (AlphaScreen); conditions: GST-VEGFR3 cytoplasmic domain, 500 μM ATP (modified form: His-fusion, 1 μM ATP)
T2 construct: VEGFR3 cytoplasmic domain (amino acids 798-1298) was purchased as N-terminal GST-fusion protein; GST (N); purchased
Experimental: Compounds of the invention may be tested for in vitro activity in the following assay: A biotin labelled peptide is used as substrate (amino acid sequence: Biotin-[…]NH2). VEGFR3 cytoplasmic domain (amino acids 798-1298) was purchased as N-terminal GST-fusion protein (“the enzyme”). The 15 μL assay reactions are run in Greiner brand white 384-well low volume plates. All reactions contained 10 mM HEPES pH 7.4, 10 mM MgCl2, 0.01% (v/v) Tween-20, 50 μM Na3VO4, 0.01% (w/v) albumin from chicken egg white, 1 mM Dithiothreitol, 111 nM peptide substrate, 500 μM ATP, and 3.8 ng/reaction enzyme, with the enzyme being omitted from negative control reactions. Compounds were added in a volume of […] from dilution series prepared in DMSO, positive and negative control reactions receiving the same volume DMSO without compound. The plates were sealed with adhesive seals and incubated for 90 minutes at 30 degree Celsius. The reactions were stopped with the detection reagents added at the same time as follows: Product formation was quantified as amplified luminescence between PerkinElmer AlphaScreen™ beads, using Streptavidin-coated donor and anti-phosphotyrosine (P-Tyr-100) acceptor beads. To each reaction, 5 μL containing 10 mM HEPES pH 7.4, 25 mM NaCl, 100 mM EDTA, 0.01% (v/v) Tween-20, and 6.25 μg/mL of each bead type were added. Plates were incubated for 6 hours before being read on a PerkinElmer EnVision™ plate reader in HTS Alphascreen™ mode. IC50 values were obtained by calculating percent inhibition (% I) for each reaction relative to controls on the same plate (% I=(I-CN)/(CP-CN) where CN/CP are the averages of the negative/positive reactions, respectively), then fitting the % I data vs. compound concentration [I] to % I=(A+((B−A)/(1+((C/[I])̂D)))) where A is the lower asymptote, B is the upper asymptote, C is the IC50 value, and D is the slope factor.
The above assay was also run in a modified form in some cases (indicated below with *). In these cases, VEGFR3 cytoplasmic domain (amino acids 818-1177, lacking 949-1002 of UniProt accession number P35916) was expressed and purified as N-terminal Hexa-His-fusion protein (“the enzyme”), rather than using the N-terminal GST-fusion protein. The assay conditions were the same as above but with 1 μM ATP and 8 ng/reaction of the enzyme.

T2 sequence (P35916 798-1298 isoform P35916-1): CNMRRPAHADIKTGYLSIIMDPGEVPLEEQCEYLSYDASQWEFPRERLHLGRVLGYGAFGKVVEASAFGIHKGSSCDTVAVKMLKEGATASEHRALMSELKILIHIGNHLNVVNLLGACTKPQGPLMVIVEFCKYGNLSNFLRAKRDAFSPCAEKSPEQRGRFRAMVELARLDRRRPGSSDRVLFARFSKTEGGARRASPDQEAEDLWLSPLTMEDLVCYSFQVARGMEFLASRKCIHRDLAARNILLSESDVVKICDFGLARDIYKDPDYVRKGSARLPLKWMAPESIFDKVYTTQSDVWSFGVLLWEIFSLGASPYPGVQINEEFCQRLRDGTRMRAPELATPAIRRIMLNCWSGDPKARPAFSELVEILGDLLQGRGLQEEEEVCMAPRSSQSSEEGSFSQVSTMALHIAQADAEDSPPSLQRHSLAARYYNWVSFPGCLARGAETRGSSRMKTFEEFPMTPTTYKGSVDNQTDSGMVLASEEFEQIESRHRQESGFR
T1 sequence (P35916 25-1363): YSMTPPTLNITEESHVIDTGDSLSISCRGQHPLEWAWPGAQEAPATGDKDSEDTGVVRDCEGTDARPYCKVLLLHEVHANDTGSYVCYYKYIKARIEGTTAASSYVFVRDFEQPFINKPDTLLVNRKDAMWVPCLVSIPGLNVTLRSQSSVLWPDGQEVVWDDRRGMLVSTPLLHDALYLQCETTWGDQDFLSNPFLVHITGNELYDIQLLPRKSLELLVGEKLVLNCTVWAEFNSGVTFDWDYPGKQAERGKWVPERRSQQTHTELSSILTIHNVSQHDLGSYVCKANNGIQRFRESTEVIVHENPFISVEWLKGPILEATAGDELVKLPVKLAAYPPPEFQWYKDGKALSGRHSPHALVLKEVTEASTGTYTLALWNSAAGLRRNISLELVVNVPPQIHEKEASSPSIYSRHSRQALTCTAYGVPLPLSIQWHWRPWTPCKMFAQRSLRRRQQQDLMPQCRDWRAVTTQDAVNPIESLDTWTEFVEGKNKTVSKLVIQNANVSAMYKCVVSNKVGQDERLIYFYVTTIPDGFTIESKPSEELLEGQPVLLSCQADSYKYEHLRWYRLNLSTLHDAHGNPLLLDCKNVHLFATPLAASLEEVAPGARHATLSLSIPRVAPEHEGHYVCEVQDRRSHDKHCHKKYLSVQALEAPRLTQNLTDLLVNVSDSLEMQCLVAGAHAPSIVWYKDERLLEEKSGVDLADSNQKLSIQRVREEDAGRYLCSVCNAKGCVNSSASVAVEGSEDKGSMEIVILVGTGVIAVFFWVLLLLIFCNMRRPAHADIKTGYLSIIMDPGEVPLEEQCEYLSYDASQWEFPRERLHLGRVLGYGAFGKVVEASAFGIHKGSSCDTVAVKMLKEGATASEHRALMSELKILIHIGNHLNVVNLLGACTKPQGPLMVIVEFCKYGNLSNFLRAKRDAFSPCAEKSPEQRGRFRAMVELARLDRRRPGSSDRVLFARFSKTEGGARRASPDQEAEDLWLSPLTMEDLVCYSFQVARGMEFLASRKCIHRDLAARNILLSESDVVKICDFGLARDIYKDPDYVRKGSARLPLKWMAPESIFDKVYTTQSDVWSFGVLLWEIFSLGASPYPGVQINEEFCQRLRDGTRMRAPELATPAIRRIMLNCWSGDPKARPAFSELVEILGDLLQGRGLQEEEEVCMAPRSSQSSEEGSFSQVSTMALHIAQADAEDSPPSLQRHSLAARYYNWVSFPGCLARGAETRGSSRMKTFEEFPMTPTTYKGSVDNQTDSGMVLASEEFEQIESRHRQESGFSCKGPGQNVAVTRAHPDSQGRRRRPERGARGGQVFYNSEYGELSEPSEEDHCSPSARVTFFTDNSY

| IC50 (VEGFR3) [nM] | IC50 [1] [nM] | SMILES |
| --- | --- | --- |
| 190 | 24 | Cc1cnc(Nc2cnn(C)c2)nc1CCc1ccccc1CC(N)=O [Compound 28, 2-(2-(2-(5-methyl-2-((1-methyl-^1H-pyrazol-4-yl)amino)pyrimidin-4-yl)ethyl)phenyl)acetamide] |
| 62 | 23 | NC(=O)Cc1ccccc1CCc1nc(Nc2ccc(C(=O)N3CCNCC3)cc2)ncc1C(F)(F)F [Compound 6, 2-(2-(2-(2-((4-(piperazine-1-carbonyl)phenyl)amino)-5-(trifluoromethyl)pyrimidin-4-yl)ethyl)phenyl)acetamide] |
| 1250 | 28 | Cc1cnc(Nc2cnn(C3CCNCC3)c2)nc1CCc1ccccc1CC(N)=O [Compound 33, 2-(2-(2-(5-Methyl-2-((1-(piperidin-4-yl)-^1H-pyrazol-4-yl)amino)pyrimidin-4-yl)ethyl)phenyl)acetamide] |
| 214 | 22 | Cc1cnc(Nc2ccc(C3CCNCC3)cc2)nc1CCc1ccccc1CC(N)=O [Compound 16, 2-(2-(2-(5-methyl-2-((4-(piperidin-4-yl)phenyl)amino)pyrimidin-4-yl)ethyl)phenyl)acetamide] |
| 210 | 28 | Cc1cnc(Nc2ccc(C3CCN(C)CC3)nc2)nc1CCc1ccccc1CC(N)=O [Compound 5, 2-(2-(2-(5-methyl-2-((6-(1-methylpiperidin-4-yl)pyridin-3-yl)amino)pyrimidin-4-yl)ethyl)phenyl)acetamide] |
| 18 | 46 | CC(N)c1ccc(Nc2ncc(C(F)(F)F)c(CCc3ccccc3CC(N)=O)n2)cc1 (stereo not drawn) [Compound 18, 2-(2-(2-(2-(4-(1-aminoethyl)phenylamino)-5-(trifluoromethyl)pyrimidin-4-yl)ethyl)phenyl)acetamide] |
| 121 | 39 | Cc1cnc(Nc2ccc(N3CCNCC3)cc2)nc1CCc1ccccc1CC(N)=O [Compound 2, 2-(2-(2-(5-methyl-2-((4-(piperazin-1-yl)phenyl)amino)pyrimidin-4-yl)ethyl)phenyl)acetamide] |
| 116 | 20 | Cc1cc(Nc2ncc(C(F)(F)F)c(CCc3ccccc3CC(N)=O)n2)ccc1C1CCN(C)CC1 [Compound 12, 2-(2-(2-(2-((3-methyl-4-(1-methylpiperidin-4-yl)phenyl)amino)-5-(trifluoromethyl)pyrimidin-4-yl)ethyl)phenyl)acetamide] |
| 39 | 26 | Cc1cc(Nc2ncc(C(F)(F)F)c(CCc3ccccc3CC(N)=O)n2)ccc1C1CCNCC1 [Compound 11, 2-(2-(2-(2-((3-methyl-4-(piperidin-4-yl)phenyl)amino)-5-(trifluoromethyl)pyrimidin-4-yl)ethyl)phenyl)acetamide] |
| 156 | 97 | NCc1ccc(Nc2ncc(C(F)(F)F)c(CCc3ccccc3CC(N)=O)n2)cc1 [Compound 3, 2-(2-(2-(2-((4-(Aminomethyl)phenyl)amino)-5-(trifluoromethyl)pyrimidin-4-yl)ethyl)phenyl)acetamide] |

| SMILES | IC50 (VEGFR3) [nM] | IC50 [1] [nM] |
| --- | --- | --- |
| CC(N)c1ccc(Nc2ncc(Cl)c(CCc3ccccc3CC(N)=O)n2)cc1 (stereo not drawn) [Compound 37, 2-(2-(2-(2-(4-(1-aminoethyl)phenylamino)-5-chloropyrimidin-4-yl)ethyl)phenyl)acetamide] | 26 | 12 |
| Cc1cnc(Nc2ccc(C3(N)COC3)cc2)nc1CCc1ccccc1CC(N)=O [Compound 31, 2-(2-(2-(2-(4-(3-aminooxetan-3-yl)phenylamino)-5-methylpyrimidin-4-yl)ethyl)phenyl)acetamide] | 107 | 23 |
| Cc1cnc(Nc2cccnc2)nc1CCc1ccccc1CC(N)=O [Compound 24, 2-(2-(2-(5-methyl-2-(pyridin-3-ylamino)pyrimidin-4-yl)ethyl)phenyl)acetamide] | 169 | 34 |
| Cc1cnc(Nc2ccc(OC3CCNCC3)cc2)nc1CCc1ccccc1CC(N)=O [Compound 26, 2-(2-(2-(5-methyl-2-((4-(piperidin-4-yloxy)phenyl)amino)pyrimidin-4-yl)ethyl)phenyl)acetamide] | 83 | 24 |
| Cc1cnc(Nc2ccc(C3CCNCC3)nc2)nc1CCc1ccccc1CC(N)=O [Compound 4, 2-(2-(2-(5-methyl-2-((6-(piperidin-4-yl)pyridin-3-yl)amino)pyrimidin-4-yl)ethyl)phenyl)acetamide] | 2220 | 35 |
